US11484561B2, “Morus extracts rich in N-acids of imino sugars and or pipecolic acids” (Phynova Limited, priority 2011, dated 2022)

Key:
[1] = tested on: β-D-mannosidase Cellulomonas fimi; assay: Glycosidase assay, β-D-mannosidase (Cellulomonas fimi); assay type: biochemical; conditions: Table 16; % inhibition; concentration not given
Experimental: (§1) The assays used p-nitrophenyl-substrates and commercial enzymes purchased from Sigma-Aldrich. Enzymes were assayed at 27° C. in 0.1M citric acid/0.2M disodium hydrogen phosphate buffers at the optimum pH for the enzyme. The incubation mixture consisted of 10 μl enzyme solution, 10 μl of 10 mg/ml aqueous solution of extract and 50 μl of the appropriate 5 mM p-nitrophenyl substrate made up in buffer at the optimum pH for the enzyme. The reactions were stopped by addition of 70 μl 0.4M glycine (pH 10.4) during the exponential phase of the reaction, which had been determined at the beginning using uninhibited assays in which water replaced mulberry fractions. Final absorbances were read at 405 nm using a Versamax microplate reader (Molecular Devices). Assays were carried out in triplicate, and the values given are means of the three replicates per assay. Results are expressed as % inhibition.

[2] = molecular target: T1, α-D-galactosidase (green coffee bean) (Coffea arabica, UniProt Q42656); assay: Glycosidase assay, α-D-galactosidase (green coffee bean); assay type: biochemical; conditions: Table 16; % inhibition; concentration not given
T1 construct: purchased Sigma-Aldrich
T1 sequence (Q42656 16-378): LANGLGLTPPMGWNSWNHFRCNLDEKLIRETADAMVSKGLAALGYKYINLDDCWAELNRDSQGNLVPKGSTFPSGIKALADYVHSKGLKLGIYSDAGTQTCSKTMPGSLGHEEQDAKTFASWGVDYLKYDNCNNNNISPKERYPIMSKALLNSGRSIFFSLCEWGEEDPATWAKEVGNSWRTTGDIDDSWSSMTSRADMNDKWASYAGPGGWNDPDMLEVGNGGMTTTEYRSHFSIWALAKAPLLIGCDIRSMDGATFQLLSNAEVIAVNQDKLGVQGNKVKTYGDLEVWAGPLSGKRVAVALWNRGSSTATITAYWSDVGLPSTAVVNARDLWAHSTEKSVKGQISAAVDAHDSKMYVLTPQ
Experimental: as §1
(§2) Substrates are 10 mM p-nitrophenyl-glycopyranosides. Enzymes are purchased from Sigma and run at the pH optima

[3] = tested on: naringinase (P. decumbens); assay: Glycosidase assay, naringinase (P. decumbens); assay type: biochemical; conditions: Table 16; % inhibition; concentration not given
Experimental: as §1, §2

α-L-fucosidase (bovine) = molecular target: T2, α-L-fucosidase (bovine) (Bos taurus, UniProt Q2KIM0); assay: Glycosidase assay, α-L-fucosidase (bovine); assay type: biochemical; conditions: Table 16; % inhibition; concentration not given
T2 construct: purchased Sigma-Aldrich
T2 sequence (Q2KIM0 23-468): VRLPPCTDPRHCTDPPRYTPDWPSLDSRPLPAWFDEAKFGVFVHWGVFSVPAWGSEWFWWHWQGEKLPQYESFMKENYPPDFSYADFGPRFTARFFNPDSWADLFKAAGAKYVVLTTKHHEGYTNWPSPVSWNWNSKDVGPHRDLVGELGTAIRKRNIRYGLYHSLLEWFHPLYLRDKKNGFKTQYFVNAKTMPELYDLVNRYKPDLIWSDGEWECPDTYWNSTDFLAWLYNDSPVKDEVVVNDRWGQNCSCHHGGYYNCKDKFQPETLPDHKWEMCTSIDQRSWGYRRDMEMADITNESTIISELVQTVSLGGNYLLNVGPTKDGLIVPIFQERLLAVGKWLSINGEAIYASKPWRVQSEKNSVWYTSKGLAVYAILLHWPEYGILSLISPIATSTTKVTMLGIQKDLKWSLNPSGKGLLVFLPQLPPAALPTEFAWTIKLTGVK
Experimental: as §1

[4] = molecular target: T3, α-D-mannosidase (Jack bean) (Canavalia ensiformis, UniProt C0HJB3); conditions: typical DNJ inhibitory activity shown for reference, in words; cited from earlier work
T3 construct: purchased Sigma-Aldrich
T3 sequence (C0HJB3 1-562 limits assumed): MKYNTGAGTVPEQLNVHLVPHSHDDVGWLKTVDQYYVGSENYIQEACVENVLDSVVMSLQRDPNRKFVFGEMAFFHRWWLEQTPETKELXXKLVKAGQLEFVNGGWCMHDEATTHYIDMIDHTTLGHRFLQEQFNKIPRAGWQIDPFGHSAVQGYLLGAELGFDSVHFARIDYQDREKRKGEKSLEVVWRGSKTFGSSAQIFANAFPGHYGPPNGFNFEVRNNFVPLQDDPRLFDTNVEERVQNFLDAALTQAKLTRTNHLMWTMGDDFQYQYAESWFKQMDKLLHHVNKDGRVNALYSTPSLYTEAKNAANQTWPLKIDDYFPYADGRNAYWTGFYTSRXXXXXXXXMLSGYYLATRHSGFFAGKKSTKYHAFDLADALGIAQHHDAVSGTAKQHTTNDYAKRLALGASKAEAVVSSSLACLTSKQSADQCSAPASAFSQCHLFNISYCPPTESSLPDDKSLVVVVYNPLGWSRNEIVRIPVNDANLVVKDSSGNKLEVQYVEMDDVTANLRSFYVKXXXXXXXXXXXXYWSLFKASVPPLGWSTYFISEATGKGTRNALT

α-D-glucosidase (rice) = molecular target: T4, α-D-glucosidase (rice) (Oryza sativa subsp. japonica, UniProt Q653V7); assay: Glycosidase assay, α-D-glucosidase (rice); assay type: biochemical; conditions: Table 16; % inhibition; concentration not given
T4 construct: purchased Sigma-Aldrich
T4 sequence (Q653V7 34-885): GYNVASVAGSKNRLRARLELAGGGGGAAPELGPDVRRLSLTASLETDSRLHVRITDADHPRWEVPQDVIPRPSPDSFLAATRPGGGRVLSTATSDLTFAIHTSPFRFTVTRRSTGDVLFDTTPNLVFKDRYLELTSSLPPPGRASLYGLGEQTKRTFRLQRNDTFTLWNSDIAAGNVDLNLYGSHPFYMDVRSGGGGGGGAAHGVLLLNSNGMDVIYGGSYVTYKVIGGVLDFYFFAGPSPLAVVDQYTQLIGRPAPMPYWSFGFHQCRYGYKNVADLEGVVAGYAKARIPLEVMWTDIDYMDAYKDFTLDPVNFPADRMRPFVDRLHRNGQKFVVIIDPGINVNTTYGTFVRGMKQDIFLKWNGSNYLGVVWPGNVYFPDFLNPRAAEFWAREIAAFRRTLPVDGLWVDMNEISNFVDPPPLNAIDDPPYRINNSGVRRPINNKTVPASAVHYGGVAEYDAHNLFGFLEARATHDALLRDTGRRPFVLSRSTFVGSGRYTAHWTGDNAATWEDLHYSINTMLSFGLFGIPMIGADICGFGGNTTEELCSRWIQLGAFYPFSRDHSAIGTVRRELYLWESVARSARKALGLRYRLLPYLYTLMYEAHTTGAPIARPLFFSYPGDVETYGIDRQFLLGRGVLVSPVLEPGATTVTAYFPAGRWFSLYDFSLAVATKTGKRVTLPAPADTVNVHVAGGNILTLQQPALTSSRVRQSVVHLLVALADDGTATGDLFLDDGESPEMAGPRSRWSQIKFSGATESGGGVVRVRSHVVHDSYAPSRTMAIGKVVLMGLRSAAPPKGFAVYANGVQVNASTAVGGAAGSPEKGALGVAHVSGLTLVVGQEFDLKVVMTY
Experimental: as §1, §2

[5] = molecular target: T5, β-glucuronidase (bovine liver) (Bos taurus, UniProt A3KMY8); assay: Glycosidase assay, β-glucuronidase (bovine liver); assay type: biochemical; conditions: read-out: IC50 against bovine liver β-glucuronidase
T5 construct: purchased Sigma-Aldrich; host or cells: bovine liver
T5 sequence (A3KMY8 1-652): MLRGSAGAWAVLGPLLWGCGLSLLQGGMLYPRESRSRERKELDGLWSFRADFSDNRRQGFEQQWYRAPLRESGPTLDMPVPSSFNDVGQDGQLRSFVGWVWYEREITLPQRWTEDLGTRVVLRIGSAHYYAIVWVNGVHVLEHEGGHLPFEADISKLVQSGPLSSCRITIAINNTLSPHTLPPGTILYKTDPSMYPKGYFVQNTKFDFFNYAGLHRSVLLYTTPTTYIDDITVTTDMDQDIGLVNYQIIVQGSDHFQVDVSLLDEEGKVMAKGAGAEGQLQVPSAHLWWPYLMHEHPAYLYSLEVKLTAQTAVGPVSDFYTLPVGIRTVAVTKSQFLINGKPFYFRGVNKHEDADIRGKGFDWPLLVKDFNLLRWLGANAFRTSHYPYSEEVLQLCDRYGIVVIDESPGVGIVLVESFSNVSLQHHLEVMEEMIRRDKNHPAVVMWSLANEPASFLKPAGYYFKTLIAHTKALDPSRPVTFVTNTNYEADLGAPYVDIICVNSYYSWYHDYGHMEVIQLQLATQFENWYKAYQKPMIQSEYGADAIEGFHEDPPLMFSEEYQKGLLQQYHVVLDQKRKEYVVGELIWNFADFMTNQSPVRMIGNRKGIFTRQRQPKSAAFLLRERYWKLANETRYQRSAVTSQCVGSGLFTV
Experimental: as §1, §2

Compound	β-D-mannosidase (C. fimi) [1] [%]	α-D-galactosidase (Green coffee beans) [2] [%]	Naringinase (P. decumbens) [3] [%]	α-L-fucosidase (Bovine) (α-L-fucosidase (bovine)) [%]	α-D-man Jack bean, typical DNJ inhibitory activity [4]	α-D-glucosidase (Rice) (α-D-glucosidase (rice)) [%]	IC50 [5] [µM]
OC[C@H]1NC[C@H](O)[C@@H](O)[C@@H]1O [DNJ, 1 deoxynojirmycin]	−19	−3	21	6	weak	100	
O=C(O)CN1C[C@@H](O)[C@H](O)[C@H]1CO [DAB-N-ethanoic, DAB-N-ethanoic acid]	−5	−5	0	3		42	523
O=C(O)CCN1C[C@H](O)[C@@H](O)[C@H](O)[C@H]1CO [DNJ-N-propanoic, DNJ-N-propanoic acid]	−5	15	4	11		100	340
O=C(O)CN1C[C@H](O)[C@@H](O)[C@H](O)[C@H]1CO [DNJ-N-ethanoic, DNJ-ethanoic acid]	−10	−8	0	5		100	208
